From article PMC10523748, “Cytotoxicity, acute and sub-chronic toxicities of the leaves of Bauhinia thonningii (Schumach.) Milne-Redh. (Caesalpiniaceae)” (BMC Complementary Medicine and Therapies, 2023)
Where two headings read alike, the source gives them in different places.

Assays:
[1] = tested on: MDA-MB-231-pcDNA breast adenocarcinoma cells; test: RRA cytotoxicity, MDA-MB-231-pcDNA; conditions: Homo sapiens, 72 h
Procedure: (§3) The sources of the HepG2 hepatocarcinoma [27], U87MG glioblastoma cells and its resistant epidermal growth factor receptor (EGFR) transfected subline, U87MG.ΔEGFR [28], HCT116 p53^+/+ colon adenocarcinoma cells and its resistant knock-out congener, HCT116 p53^−/− [29], MDA-MB-231-pcDNA3 breast adenocarcinoma cells and its multidrug-resistant breast cancer resistance protein (BCRP)-transfected MDA-MB-231-BCRP clone 23 subline [30] have also been described. To compare the activity of samples in HepG2 cells, the AML12 hepatocytes were used [31]. […] These culture media were used as complete media with additional 10% fetal bovine serum and 1% penicillin/streptomycin (Invitrogen, Eggenstein, Germany).
(§4) Botanicals were tested in the concentration range of 0.63–80 µg/mL, the isolated compounds at 0.78—100 µM; the treated cells were incubated for 72 h; the fluorescence was measured at the excitation wavelength of 544 nm and at the emission wavelengths of 590 nm using Infinite M2000 Pro™ plate reader (Tecan, Crailsheim, Germany).

CCRF-CEM leukemia cells = test: Resazurin reduction assay (RRA) cytotoxicity, CCRF-CEM; conditions: Homo sapiens, 72 h
HCT116 p53^−/− cells = test: RRA cytotoxicity, HCT116 p53^−/−; conditions: for IC50: Homo sapiens, HCT-116, 72 h; for Degree of resistance: IC50 HCT116 p53^−/− versus HCT116 p53^+/+
Procedure: (§5) The sources of the HepG2 hepatocarcinoma [27], U87MG glioblastoma cells and its resistant epidermal growth factor receptor (EGFR) transfected subline, U87MG.ΔEGFR [28], HCT116 p53^+/+ colon adenocarcinoma cells and its resistant knock-out congener, HCT116 p53^−/− [29], MDA-MB-231-pcDNA3 breast adenocarcinoma cells and its multidrug-resistant breast cancer resistance protein (BCRP)-transfected MDA-MB-231-BCRP clone 23 subline [30] have also been described. […] These culture media were used as complete media with additional 10% fetal bovine serum and 1% penicillin/streptomycin (Invitrogen, Eggenstein, Germany).
as §4

[2] = tested on: caspase 8 in CCRF-CEM cells; test: Caspase-Glo 8 assay; assay type: cell-based, human; conditions: 6 h, versus untreated cells
Procedure: (§1) The amount of the treated cells was 1.5 × 10^4 cells for the caspase 3/7 assay or 3 × 10^4 cells for the caspase 8 and caspase 9 assays in 100 µL. The treated cells were then incubated for 6 h under the standard cell culture conditions as described above. Subsequently, the activity of caspases was detected by a spectrophotometry measurement of luminescence using 100 µL caspase solution from the Caspase-Glo 3/7, 8, and 9 Assay kits (Promega, Mannheim, Germany) with an Infinite M2000 ProTM plate reader (Tecan).

U87MG.ΔEGFR cells = test: RRA cytotoxicity, U87MG.ΔEGFR; conditions: for IC50: Homo sapiens, 72 h; for Degree of resistance: IC50 U87MG.ΔEGFR versus U87MG
Procedure: as §5, §4

[3] = tested on: caspases 3/7 in CCRF-CEM cells; test: Caspase-Glo 3/7 assay; assay type: cell-based, human; conditions: 6 h, versus untreated cells
Procedure: as §1

CCRF-CEM cells = test: Apoptosis, annexin V/PI staining and flow cytometry; assay type: cell-based, human; conditions: 24 h, non-treated cells 0.4%
Procedure: The concentration of samples used and CCRF-CEM cells were those as reported above under the standard cell culture conditions. To detect the apoptotic cells, the fluorescein isothiocyanate (FITC)-conjugated annexin V/PI assay kit (eBioscience™ Annexin V; Invitrogen, San Diego, USA) was applied to treated cells after 24 h incubation followed by the measurements with BD Accury C6 Flow Cytometer (BD Biosciences). The assays were performed separately three times and in triplicate.

[4] = tested on: HCT116 p53^+/+ colon adenocarcinoma cells; test: RRA cytotoxicity, HCT116 p53^+/+; conditions: Homo sapiens, HCT-116, 72 h
Procedure: as §3, §4

[5] = tested on: HepG2 hepatocarcinoma cells; test: RRA cytotoxicity, HepG2; conditions: Homo sapiens, HepG2, 72 h
Procedure: as §3, §4

[6] = tested on: reactive oxygen species (ROS) production in CCRF-CEM cells; test: ROS production, H2DCFH-DA staining and flow cytometry; assay type: cell-based, human; conditions: 24 h
Procedure: (§2) The treated cells (1 mL; 1 × 10^6 cells) were incubated for 24 h under the standard cell culture condition. Cells were further stained for 30 min with 10 µL of staining solution ([…] or H2DCFH-DA solution for ROS evaluation) according to the manufacturer’s protocol. Using the LSRFortessa FACS analyzer (Becton–Dickinson, Heidelberg, Germany), the amount of 1 × 10^4 cells was further measured as described earlier.

[7] = tested on: mitochondrial membrane potential (MMP) of CCRF-CEM cells; test: MMP analysis, JC-1 staining and flow cytometry; assay type: cell-based, human; conditions: 24 h
Procedure: as §2

[8] = tested on: CEM/ADR5000 leukemia cells (P-gp-overexpressing); test: RRA cytotoxicity, CEM/ADR5000; conditions: for IC50: Homo sapiens, ADR5000, 72 h; for Degree of resistance: IC50 CEM/ADR5000 versus CCRF-CEM
Source text: These culture media were used as complete media with additional 10% fetal bovine serum and 1% penicillin/streptomycin (Invitrogen, Eggenstein, Germany).

[9] = tested on: caspase 9 in CCRF-CEM cells; test: Caspase-Glo 9 assay; assay type: cell-based, human; conditions: 6 h, versus untreated cells
Procedure: as §1

MDA-MB-231-BCRP cells = test: RRA cytotoxicity, MDA-MB-231-BCRP; conditions: for IC50: Homo sapiens, MDA-MB-231/BCRP, 72 h; for Degree of resistance: IC50 MDA-MB-231-BCRP versus MDA-MB-231-pcDNA
Procedure: as §5, §4

U87MG glioblastoma cells = test: RRA cytotoxicity, U87MG; conditions: Homo sapiens, U-87 MG, 72 h
Procedure: as §3, §4

normal AML12 hepatocytes = test: RRA cytotoxicity, normal AML12 hepatocytes; conditions: Mus musculus, AML12, 72 h
MCF-7 cells = tested on: MCF-7 cells; parameters: method as in PMID 22213398; conditions: cited from earlier work
[10] = tested on: human hepatocellular carcinoma HuH7 cells; conditions: cited from earlier work
[11] = tested on: cancer cell lines tested in the current work; parameters: method as in PMID 30703492; conditions: cited from earlier work
[12] = tested on: 9 tested cancer cell lines; test: RRA cytotoxicity, whole panel of cancer cell lines; conditions: 9 cancer cell lines, up to 50 µM

Structure (SMILES)	IC50 [1] [µM]	IC50 (CCRF-CEM leukemia cells) [µM]	IC50 (HCT116 p53^−/− cells) [µM]	Degree of resistance (HCT116 p53^−/− cells)	IC50 (U87MG.ΔEGFR cells) [µM]	Degree of resistance (U87MG.ΔEGFR cells)	IC50 [4] [µM]	IC50 [5] [µM]	Effect on the integrity of the MMP [7]	IC50 [8] [µM]	Degree of resistance [8]	IC50 (MDA-MB-231-BCRP cells) [µM]	Degree of resistance (MDA-MB-231-BCRP cells)	IC50 (U87MG glioblastoma cells) [µM]	IC50 (normal AML12 hepatocytes) [µM]	further results
COc1c(-c2ccc(O)cc2)oc2c(C)c(O)c(C)c(O)c2c1=O [Compound 8, 6,8-C-dimethylkaempferol-3-methyl ether]	2.34 ± 0.31	3.03 ± 0.37	3.41 ± 0.35	0.36	15.4 ± 0.64	1.92	9.59 ± 0.84	19.4 ± 2.07	strongly altered the integrity of the MMP	2.42 ± 0.3	0.80	8.26 ± 0.66	3.53	8.01 ± 0.84	> 50	melting point: 250 to 253 °C; Increase of caspase 8 activity [2]: 3.63 fold; Increase of caspases 3/7 activity [3]: 4.41 fold; Early apoptosis, annexin V (+)/PI (-) cells, highest proportion (CCRF-CEM cells): ≤ 67.3%; Effect on ROS production [6]: enhanced higher ROS production; ROS level ([6]; 2 × IC50, untreated cells 0.6%): 24.50%; Q1, cells with undamaged (intact) MMP ([7]; 2 × IC50, untreated control 92.6%): 23.0%; Increase of caspase 9 activity [9]: 4.22 fold
C[C@H]1[C@H](C)CC[C@]2(C(=O)O)CC[C@]3(C)C(=CC[C@@H]4[C@@]5(C)CC[C@H](O)C(C)(C)[C@@H]5CC[C@]43C)[C@H]12 [Compound 9, ursolic acid]	–	–	–	–	–	–	–	–	–	–	–	–	–	–	–	IC50 (MCF-7 cells; MCF-7, converted from μg/mL, read-out: IC50): 15.6 µM; IC50 (MCF-7 cells; MCF-7): 7.1 µg/mL; IC50 [10]: 75 µM
CCC(CCC(C)C1CCC2C3CC=C4CC(OC5OC(CO)C(O)C(O)C5O)CCC4(C)C3CCC12C)C(C)C [Compound 10, 3-O-β-D-glucopyranoside of β-sitosterol]	> 50	44.3 ± 3.91	> 50	–	> 50	–	> 50	> 50	–	> 50	> 1.13	> 50	–	> 50	> 50	IC50 [11]: > 100 µM; Cytotoxic activity in the panel [12]: selectively active
COc1cccc2c1C(=O)c1c(O)c3c(c(O)c1C2=O)C[C@@](O)(C(=O)CO)C[C@@H]3O[C@H]1C[C@H](N)[C@H](O)[C@H](C)O1 [Doxorubicin, doxorubicin, reference compound]	0.13 ± 0.01	0.02	1.78 ± 0.08	3.73	0.98 ± 0.07	3.79	–	4.56 ± 0.48	–	123 ± 10.9	6,683.00	0.79 ± 0.08	6.14	0.26 ± 0.03	> 50	–
OO [H2O2, hydrogen peroxide, reference compound]	–	–	–	–	–	–	–	–	–	–	–	–	–	–	–	ROS level ([6]; 50 µM, untreated cells 0.6%): 94.30%
CC(C)[C@@H]1NC(=O)[C@H](C)OC(=O)[C@@H](C(C)C)NC(=O)[C@@H](C(C)C)OC(=O)[C@H](C(C)C)NC(=O)[C@H](C)OC(=O)[C@@H](C(C)C)NC(=O)[C@@H](C(C)C)OC(=O)[C@H](C(C)C)NC(=O)[C@H](C)OC(=O)[C@@H](C(C)C)NC(=O)[C@@H](C(C)C)OC1=O [Valinomycin, valinomycin, reference compound]	–	–	–	–	–	–	–	–	strongly altered the integrity of the MMP	–	–	–	–	–	–	Q1, cells with undamaged (intact) MMP ([7]; positive control, picture: at 25 (no unit), text: 2 × IC50): 38.6%
